Article PMC11331127 (Proceedings of the National Academy of Sciences of the …, 2024)

How the values were obtained:
Type in all cases: cell-based
Cx26 [1] = molecular target: T1, Cx26 (Homo sapiens, UniProt P29033); assay: dye uptake rate in Xenopus oocytes; details: transport (dye permeation); resting membrane potential
Cx26 [2] = molecular target: T1, Cx26; assay: inhibition of DAPI uptake in Xenopus oocytes; details: competitive versus DAPI; resting membrane potential
Cx30 = Cx30 (Homo sapiens, UniProt O95452); assay: dye uptake rate in Xenopus oocytes; details: transport (dye permeation); resting membrane potential
Cx26 [3] = molecular target: Cx26 (Homo sapiens, UniProt P29033, INS2A); assay: dye uptake rate in Xenopus oocytes; details: transport (dye permeation); resting membrane potential

Cx30, sequence (O95452 whole entry): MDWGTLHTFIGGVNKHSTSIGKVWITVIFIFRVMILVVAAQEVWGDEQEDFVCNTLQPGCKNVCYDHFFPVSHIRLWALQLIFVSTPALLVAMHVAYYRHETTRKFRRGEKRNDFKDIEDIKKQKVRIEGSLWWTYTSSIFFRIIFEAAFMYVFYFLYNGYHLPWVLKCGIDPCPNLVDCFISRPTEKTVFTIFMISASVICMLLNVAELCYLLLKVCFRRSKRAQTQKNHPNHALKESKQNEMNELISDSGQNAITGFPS

Substance	Km (Cx26 [1]) [µM]	Ki (Cx26 [2]) [µM]	Km (Cx30) [µM]	Km (Cx26 [3]) [µM]
DAPI	90.1 ± 22	–	–	–
ethidium	–	~16.5	6.6 ± 2	88.6 ± 17.4
